Where “and” joins values, the source holds several entries; their conditions need not be identical. Equal values may be shown once. Entries after “also recorded” stand apart in the source; their conditions may differ. Read-outs that look alike come from different tables or passages of the source.
How the values were obtained:
αHL•βCD = αHL•βCD (Staphylococcus aureus, UniProt P09616); assay: biochemical; assay type: biochemical; conditions: for K^Af (formation constant of αHL•βCD•A) / ΔG of analyte binding to αHL•βCD: pH 3.0
αHL pore = αHL pore (Staphylococcus aureus, UniProt P09616); assay type: biochemical
[1] = assay type: binding; conditions: pH 3.0
[2] = cited from earlier work
WT-αHL pore = WT-αHL pore (Staphylococcus aureus, UniProt P09616); assay type: biochemical; conditions: pH 7.5
Chain of WT-αHL pore (P09616 27-319 limits assumed): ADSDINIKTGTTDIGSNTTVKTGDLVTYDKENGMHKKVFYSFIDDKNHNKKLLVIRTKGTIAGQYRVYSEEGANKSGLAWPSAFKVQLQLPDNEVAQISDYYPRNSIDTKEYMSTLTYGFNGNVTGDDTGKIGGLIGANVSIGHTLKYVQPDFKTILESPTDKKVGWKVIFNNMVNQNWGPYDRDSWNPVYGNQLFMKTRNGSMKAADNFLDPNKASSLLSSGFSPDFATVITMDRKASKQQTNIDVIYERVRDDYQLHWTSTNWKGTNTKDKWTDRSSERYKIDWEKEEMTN

Chain of αHL•βCD (P09616 27-319 limits assumed): as above
Chain of αHL pore (P09616 27-319 limits assumed): as above

Compound: Cl.NC12CC3CC(CC(C3)C1)C2 [1-adamantanamine hydrochloride]
- (IP·C·A IP·C)/(IP·C·A-IP) (αHL•βCD): 0.294 ± 0.005
- Kd (αHL•βCD): 109 ± 4.95 µM
- Residence time (τ) of the analyte on αHL·βCD (αHL•βCD): 1.42 ± 0.14 ms

Compound: NC(=O)C12CC3CC(CC(C3)C1)C2 [1-adamantanecarboxamide]
- (IP·C·A IP·C)/(IP·C·A-IP) (αHL•βCD): 0.333 ± 0.005
- Kd (αHL•βCD): 34.2 ± 2.77 µM
- Residence time (τ) of the analyte on αHL·βCD (αHL•βCD): 3.99 ± 0.18 ms

Compound: O=C(O)C12CC3CC(CC(C3)C1)C2 [1-adamantanecarboxylic acid]
- binding to the pore without adapter/carrier (αHL pore): does not bind to the pore
- (IP·C·A IP·C)/(IP·C·A-IP) (αHL•βCD): 0.346 ± 0.005
- Kd (αHL•βCD): 7.53 ± 1.16 µM
- Residence time (τ) of the analyte on αHL·βCD (αHL•βCD): 14.0 ± 0.79 ms
- conductance of the partially blocked channel (αHL•βCD) with guest (αHL•βCD): 112.2 pS
- residence time (τ) of guest (αHL•βCD): 14.0 ms
- single channel current level, additional block of αHL•βCD (αHL•βCD): −4.7 pA
- K^Af (formation constant of αHL•βCD•A) (αHL•βCD): 1.35±0.19×10^5 M^−1
- ΔG of analyte binding to αHL•βCD (αHL•βCD): -7.0 kcal/mol
- K^Af (formation constant of analyte with βCD in solution) [1]: 5.76±1.50×10^4 M^−1
- ΔG of analyte binding to βCD in solution [1]: -6.5 kcal/mol
- Literature ΔG for binding to βCD ([2]; pH 4.05): -7.5 kcal/mol
- Literature ΔG for binding to βCD ([2]; pH 7.2): -6.4 kcal/mol

Compound: OCCC12CC3CC(CC(C3)C1)C2 [1-adamantaneethanol]
- (IP·C·A IP·C)/(IP·C·A-IP) (αHL•βCD): 0.348 ± 0.003
- Kd (αHL•βCD): 3.33 ± 1.07 µM
- Residence time (τ) of the analyte on αHL·βCD (αHL•βCD): 30.6 ± 2.42 ms

Compound: Cl.NC1C2CC3CC(C2)CC1C3 (stereo not shown) [2-adamantanamine hydrochloride]
- effect on the completely open channel (αHL pore; hydrochloride): does not affect; also recorded: no effect
- (IP·C·A IP·C)/(IP·C·A-IP) (αHL•βCD): 0.286 ± 0.004
- Kd (αHL•βCD): 98.6 ± 14.3 µM
- Residence time (τ) of the analyte on αHL·βCD (αHL•βCD): 2.54 ± 0.21 ms
- conductance of the partially blocked channel (αHL•βCD) with guest (αHL•βCD): 126.5 pS
- residence time (τ) of guest (αHL•βCD): 2.54 ms
- residence time of βCD•A on αHL compared with βCD (αHL•βCD): greater than βCD itself
- single channel current level, additional block of αHL•βCD (αHL•βCD): −5.7 pA
- K^Af (formation constant of αHL•βCD•A) (αHL•βCD): 1.03±0.15×10^4 M^−1
- ΔG of analyte binding to αHL•βCD (αHL•βCD): -5.5 kcal/mol
- K^Af (formation constant of analyte with βCD in solution) [1]: 9.84±2.19×10^3 M^−1
- ΔG of analyte binding to βCD in solution [1]: -5.5 kcal/mol

Compound: CC(=O)NC12CC3CC(CC(C3)C1)C2 [N-(1-adamantyl)acetamide, N-(1-adamantyl)-acetamide]
- (IP·C·A IP·C)/(IP·C·A-IP) (αHL•βCD): 0.348 ± 0.003
- Kd (αHL•βCD): 14 ± 2.24 µM
- Residence time (τ) of the analyte on αHL·βCD (αHL•βCD): 7.32 ± 2.13 ms

Compound: heptakis-6-sulfato-β-cyclodextrin [s7βCD]
- PK+/PNa+ (WT-αHL pore): 0.92
- dwell time (τ) of adapter on WT-αHL pore (WT-αHL pore): 846 ± 37 ms
- g (conductance) (WT-αHL pore): 53 pS and 53 ± 6 pS

Compound: α-cyclodextrin
- block of the ionic current (αHL pore): reversible partial blocks

Compound: β-cyclodextrin [βCD]
- block of the ionic current (αHL pore): reversible partial blocks
- partial block of the channel (αHL pore): 64%
- single channel current level with βCD bound (αHL pore): −11.5 pA
- K^Cf (equilibrium formation constant αHL•βCD) (αHL pore; pH 3): 475 M⁻¹
- conductance of αHL in the presence of βCD (αHL pore; pH 3): 272 pS
- k^Coff (αHL pore; pH 3): 115 s⁻¹
- k^Con (αHL pore; pH 3): 54600 M⁻¹ s⁻¹
- dwell time (τ) of adapter on WT-αHL pore (WT-αHL pore): 0.84 ms
- g (conductance) (WT-αHL pore): 240 pS and 240 ± 5 pS

Compound: γ-cyclodextrin [γCD]
- block of the ionic current (αHL pore): reversible partial blocks
- g (conductance) (WT-αHL pore): 328 pS and 328 ± 4 pS

Reference: US6426231B1 (priority 1998, dated 2002)
